Here are results for six compounds from ChEMBL document CHEMBL1687862, “Prenylated flavanones with anti-tyrosinase activity from Dalea boliviana” (J Nat Prod, 2011).

The structures appear in SMILES notation.

Experiment [1] concerns the target T1, Tyrosinase (Agaricus bisporus) (UniProt O42713).
T1 sequence (whole entry): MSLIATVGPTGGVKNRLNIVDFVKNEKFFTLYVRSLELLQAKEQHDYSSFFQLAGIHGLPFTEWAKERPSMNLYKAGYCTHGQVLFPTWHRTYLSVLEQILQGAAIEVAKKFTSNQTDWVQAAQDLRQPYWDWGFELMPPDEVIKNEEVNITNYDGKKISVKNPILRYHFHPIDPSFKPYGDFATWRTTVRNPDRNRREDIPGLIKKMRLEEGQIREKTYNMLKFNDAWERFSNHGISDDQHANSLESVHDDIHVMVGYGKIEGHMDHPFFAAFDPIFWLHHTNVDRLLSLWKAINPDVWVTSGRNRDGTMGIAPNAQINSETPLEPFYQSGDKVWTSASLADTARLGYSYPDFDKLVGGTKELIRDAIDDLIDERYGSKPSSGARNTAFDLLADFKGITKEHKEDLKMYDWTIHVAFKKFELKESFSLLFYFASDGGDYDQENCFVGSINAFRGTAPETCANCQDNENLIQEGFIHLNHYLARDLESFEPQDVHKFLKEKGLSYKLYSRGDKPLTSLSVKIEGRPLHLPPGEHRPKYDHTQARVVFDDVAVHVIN
Briefly: Inhibition of mushroom tyrosinase at 100 uM preincubated for 10 mins before addition of 1.7 mM L-tyrosine measured after 20 mins by spectrophotometric method.

The target of experiment [2] is T2, Tyrosinase (Agaricus bisporus, UniProt O42713).
T2 sequence (O42713 whole entry): T1 sequence (whole entry)
Briefly: (§1) Inhibition of mushroom tyrosinase preincubated for 10 mins before addition of 1.7 mM L-tyrosine measured after 20 mins by spectrophotometric method.

The target of experiment [3] is T1, Tyrosinase (Agaricus bisporus). The description is as §1.

In general, inhibition refers to the drop in the measured response relative to a control, in per cent. The low end stands for little suppression, the high end for strong suppression. In turn, `CC(C)=CCc1cccc([C@@H]2CC(=O)c3c(O)cc4c(c3O2)C=CC(C)(C)O4)c1O` returned an inhibition in experiment [1] of 6.4%.

For orientation: IC50 means the midpoint of a concentration-inhibition curve. With `CC(C)=CCc1cccc([C@@H]2CC(=O)c3c(O)cc(O)c(CC=C(C)C)c3O2)c1O`, inhibition in experiment [2] was half-maximal at 68.5 µM (IC50). The inhibition in experiment [1] was found to be 87.8%.

`O=C1C[C@@H](c2ccc(O)cc2)Oc2cc(O)cc(O)c21` returned an inhibition in experiment [1] of 2.8%.

Regarding `CC1(C)C=Cc2c(cc(O)c3c2O[C@H](c2ccccc2)CC3=O)O1`, the inhibition in experiment [1] was 16.2%.

Turning to `COc1ccc([C@@H]2CC(=O)c3c(O)cc(O)cc3O2)cc1O`, the inhibition in experiment [1] turned out to be 0%.

With `C=CC(C)(C)c1ccc(O)c([C@@H]2CC(=O)c3c(O)cc(O)c(CC=C(C)C)c3O2)c1`, in experiment [3], the IC5 is 27.5 µM. Moreover, the inhibition in experiment [1] is 82.1%.
